Laboratory results: PubChem BioAssay (NCI)
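Five compound concentrations were applied to cells in 96-well plates for 48 hours; endpoints were derived by simple linear interpolation of the resulting dose-response curve. GI50 is the concentration that inhibits growth by half. TGI marks complete inhibition of growth.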

Tests used:
Test in all cases: growth of human tumour cells (NCI), 48 h
[1] = system: DU-145 prostate
[2] = system: SR leukemia
[3] = system: HCT-15 colon
[4] = system: SW-620 colon
[5] = system: OVCAR-8 ovarian
[6] = system: HS 578T breast
[7] = system: SK-OV-3 ovarian
[8] = system: SK-MEL-5 melanoma
[9] = system: UACC-62 melanoma
[10] = system: LOX IMVI melanoma
[11] = system: ACHN renal
[12] = system: NCI-H226 lung
[13] = system: M14 melanoma
[14] = system: TK-10 renal
[15] = system: RXF 393 renal
[16] = system: SNB-75 CNS
[17] = system: OVCAR-5 ovarian
[18] = system: OVCAR-4 ovarian
[19] = system: SNB-19 CNS
[20] = system: UO-31 renal
[21] = system: BT-549 breast
[22] = system: MALME-3M melanoma
[23] = system: SF-539 CNS
[24] = system: SF-268 CNS
[25] = system: UACC-257 melanoma
[26] = system: NCI-H460 lung
[27] = system: T-47D breast
[28] = system: KM12 colon
[29] = system: SK-MEL-28 melanoma
[30] = system: COLO 205 colon
[31] = system: NCI/ADR-RES ovarian
[32] = system: HT29 colon
[33] = system: MDA-MB-435
[34] = system: A549 NSCLC
[35] = system: NCI-H23 lung
[36] = system: U251 CNS
[37] = system: PC-3 prostate
[38] = system: SK-MEL-2 melanoma
[39] = system: RPMI-8226 leukemia
[40] = system: HCC-2998 colon
[41] = system: A498 renal
[42] = system: HL-60(TB) leukemia
[43] = system: MCF7 breast
[44] = system: HOP-92 NSCLC
[45] = system: MDA-MB-231 breast
[46] = system: OVCAR-3 ovarian
[47] = system: HOP-62 NSCLC
[48] = system: MOLT-4 leukemia
[49] = system: HCT-116 colon
[50] = system: 786-0 renal
[51] = system: SF-295 CNS
[52] = system: CCRF-CEM leukemia
[53] = system: NCI-H522 lung
[54] = system: CAKI-1 renal
[55] = system: EKVX NSCLC
[56] = system: K-562 leukemia

CCN(CC)Cc1cc(Nc2cc(C(F)(F)F)c(C#N)c3nc4ccccc4n23)ccc1O
GI50 [1]: 2.78 µM | TGI [1]: 15.7 µM | GI50 [2]: 3.72 µM | TGI [2]: > 100 µM | GI50 [3]: 0.78 µM | TGI [3]: 2.76 µM | GI50 [4]: 2.61 µM | TGI [4]: 10.2 µM | GI50 [5]: 2.68 µM | TGI [5]: 12.6 µM | GI50 [6]: 2.39 µM | TGI [6]: 12.1 µM | GI50 [7]: 1.98 µM | TGI [7]: 8.59 µM | GI50 [8]: 0.271 µM | TGI [8]: 1.66 µM | GI50 [9]: 1.22 µM | TGI [9]: 3.96 µM | GI50 [10]: 2.33 µM | TGI [10]: 13.1 µM | GI50 [11]: 2.24 µM | TGI [11]: 10.3 µM | GI50 [12]: 1.34 µM | TGI [12]: 10.4 µM | GI50 [13]: 2.73 µM | TGI [13]: 13.9 µM | GI50 [14]: 1.47 µM | TGI [14]: 9.43 µM | GI50 [15]: 1.8 µM | TGI [15]: 5.81 µM | GI50 [16]: 1.41 µM | TGI [16]: 7.54 µM | GI50 [17]: 4.84 µM | TGI [17]: 23.4 µM | GI50 [18]: 1 µM | TGI [18]: 2.59 µM | GI50 [19]: 4.39 µM | TGI [19]: 36.2 µM | GI50 [20]: 1.12 µM | TGI [20]: 3.1 µM | GI50 [21]: 2.36 µM | TGI [21]: 8.75 µM | GI50 [22]: 1.19 µM | TGI [22]: 5.82 µM | GI50 [23]: 2.7 µM | TGI [23]: 11 µM | GI50 [24]: 2.51 µM | TGI [24]: 18.3 µM | GI50 [25]: 1.93 µM | TGI [25]: 7.86 µM | GI50 [26]: 1.59 µM | TGI [26]: 10.7 µM | GI50 [27]: 0.452 µM | TGI [27]: 3.65 µM | GI50 [28]: 2.42 µM | TGI [28]: 8.22 µM | GI50 [29]: 2.69 µM | TGI [29]: 17.4 µM | GI50 [30]: 1.41 µM | TGI [30]: 3.08 µM | GI50 [31]: 2.64 µM | TGI [31]: 15.9 µM | GI50 [32]: 2.5 µM | TGI [32]: 12.2 µM | GI50 [33]: 2.29 µM | TGI [33]: 13.5 µM | GI50 [34]: 3.17 µM | TGI [34]: 12.5 µM | GI50 [35]: 1.21 µM | TGI [35]: 8.29 µM | GI50 [36]: 1.5 µM | TGI [36]: 6.47 µM | GI50 [37]: 2.32 µM | TGI [37]: 7.87 µM | GI50 [38]: 1.35 µM | TGI [38]: 7.81 µM | GI50 [39]: 0.812 µM | TGI [39]: 4.96 µM | GI50 [40]: 2.85 µM | TGI [40]: 15.2 µM | GI50 [41]: 1.44 µM | TGI [41]: 5.85 µM | GI50 [42]: 2.96 µM | TGI [42]: 8.37 µM | GI50 [43]: 1.75 µM | TGI [43]: 10.7 µM | GI50 [44]: 0.59 µM | TGI [44]: 3.48 µM | GI50 [45]: 1.95 µM | TGI [45]: 5.33 µM | GI50 [46]: 1.83 µM | TGI [46]: 10.4 µM | GI50 [47]: 3.05 µM | TGI [47]: 11.4 µM | GI50 [48]: 2.46 µM | TGI [48]: 75 µM | GI50 [49]: 1.6 µM | TGI [49]: 4.45 µM | GI50 [50]: 2.57 µM | TGI [50]: 9.98 µM | GI50 [51]: 1.2 µM | TGI [51]: 3.81 µM | GI50 [52]: 2.79 µM | TGI [52]: > 100 µM | GI50 [53]: 1.05 µM | TGI [53]: 2.74 µM | GI50 [54]: 1.77 µM | TGI [54]: 11.2 µM | GI50 [55]: 0.526 µM | TGI [55]: 8.39 µM | GI50 [56]: 3.1 µM | TGI [56]: > 100 µM
